According to patent publication US8604016B2, “Heterocyclic inhibitors of glutaminase” (Calithera Biosciences Inc., priority 2011, dated 2013):

What follows are molecules tested against recombinant form of Glutaminase 1 (GAC) (Homo sapiens, UniProt O94925) (assay: Recombinant Enzyme Assay (GAC coupled to GDH, NADH absorbance, no preincubation)). Conditions: no preincubation; read-out: GAC Delta N2 IC50 no preinc.
Format: biochemical
Summary of the method: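 GAC (4 nM) in Tris-HCl pH 8.0 with 150 mM K2HPO4, EDTA, BSA, DTT, plus 4 units/ml GDH and 4 mM ADP, without preincubation. Absorbance at 340 nm was read kinetically for 15 min at 20° C. Slopes (mAU/min) were compared with DMSO-only and control-compound wells on the same plate.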

Row | SMILES | IC50 [nM]
1 | COc1cccc(CC(=O)Nc2nnc(CCSCCc3nnc(NC(=O)Cc4cccc(OC)c4OC)s3)s2)c1OC [Compound 259] | 230
2 | O=C(Cc1cccc(-n2ccnc2)c1)Nc1nnc(CCCCc2nnc(NC(=O)Cc3cccc(-n4ccnc4)c3)s2)s1 [Compound 363] | 65
3 | O=C(Cc1ccco1)Nc1nnc(CCCCc2nnc(NC(=O)Cc3ccco3)s2)s1 [Compound 86] | 320
4 | CC(C(=O)Nc1nnc(CCSCCc2nnc(NC(=O)C(C)c3ccccc3Cl)s2)s1)c1ccccc1Cl (centres unmarked) [Compound 261] | 700
5 | O=C(CC1CCCCC1)Nc1nnc(CCSCCc2nnc(NC(=O)CC3CCCCC3)s2)s1 [Compound 48] | > 50000
6 | O=C(Nc1nnc(CCSCCc2nnc(NC(=O)C3(C(F)(F)F)CC3)s2)s1)C1(C(F)(F)F)CC1 [Compound 59] | > 50000
7 | CC(C)[C@H](N)C(=O)Nc1nnc(CCSCCc2nnc(NC(=O)Cc3ccccc3)s2)s1 [Compound 32] | 7000
8 | CC(=O)OCC(C(=O)Nc1nnc(CCSCCc2nnc(NC(=O)C(COC(C)=O)c3ccccc3)s2)s1)c1ccccc1 (centres unmarked) [Compound 14] | 2800
9 | O=C(Nc1nnc(CCSCCc2nnc(NC(=O)C3C[C@@H]3c3ccccc3)s2)s1)C1C[C@@H]1c1ccccc1 (some centres unmarked) [Compound 91] | > 20000
10 | COc1ccccc1-c1cccc(CC(=O)Nc2nnc(CCCCc3nnc(NC(=O)Cc4cccc(-c5ccccc5OC)c4)s3)s2)c1 [Compound 326] | > 20000
11 | O=C(Cc1cccs1)Nc1nnc(CCSCc2nnc(NC(=O)Cc3cccs3)s2)s1 [Compound 237] | 200
12 | C=CCCC(=O)Nc1nnc(CCSCCc2nnc(NC(=O)CCC=C)s2)s1 [Compound 18] | 4500
13 | CC(C)[C@H](N)C(=O)Nc1nnc(CCCCc2nnc(NC(=O)[C@@H](N)C(C)C)s2)s1 [Compound 73] | > 50000
14 | O=C(Nc1nnc(CCSCCc2nnc(NC(=O)C3CCOCC3)s2)s1)C1CCOCC1 [Compound 108] | > 20000
15 | COC(C(=O)Nc1nnc(CCCCc2nnc(NC(=O)C(OC)c3ccccc3)s2)s1)c1ccccc1 (centres unmarked) [Compound 65] | 1300
16 | O=C(Nc1nnc(CCCCc2nnc(NC(=O)C3COc4ccccc4O3)s2)s1)C1COc2ccccc2O1 (centres unmarked) [Compound 52] | 8300
17 | COc1ccccc1CC(=O)Nc1nnc(CCSCCc2nnc(NC(=O)C(CO)c3ccccc3OC)s2)s1 (centres unmarked) [Compound 246] | 400
18 | O=C(CN1C(=O)OC[C@H]1c1ccccc1)Nc1nnc(CCSCCc2nnc(NC(=O)CN3C(=O)OC[C@H]3c3ccccc3)s2)s1 [Compound 243] | 2700

Row | SMILES | IC50 [nM]
19 | CC(=O)Nc1nnc(CCSCCc2nnc(NC(=O)Cc3ccccc3)s2)s1 [Compound 25] | 1200
20 | O=C(CC1CC1)Nc1nnc(CCCCc2nnc(NC(=O)CC3CC3)s2)s1 [Compound 85] | 1500
21 | COc1ccccc1CC(=O)Nc1nnc(CCCCc2nnc(NC(=O)Cc3ccccc3OC)s2)s1 [Compound 264] | 72
22 | O=C(CCc1ccccc1)Nc1nnc(CCCCc2nnc(NC(=O)CCc3ccccc3)s2)s1 [Compound 106] | > 20000
23 | CC(C)(CCc1nnc(NC(=O)Cc2ccccc2)s1)CCc1nnc(NC(=O)Cc2ccccc2)s1 [Compound 10] | > 50000
24 | NCC(C(=O)Nc1nnc(CCSCCc2nnc(NC(=O)C(CN)c3ccccc3)s2)s1)c1ccccc1 (centres unmarked) [Compound 230] | 12000
25 | O=C(Cc1ccc2ncccc2c1)Nc1nnc(CCSCCc2nnc(NC(=O)Cc3ccc4ncccc4c3)s2)s1 [Compound 268] | 600
26 | COc1ccc(C(=O)Nc2nnc(CCSCCc3nnc(NC(=O)c4ccc(OC)cc4)s3)s2)cc1 [Compound 3] | > 50000
27 | O=C(Nc1nnc(CCSCCc2nnc(NC(=O)C3COc4ccccc4O3)s2)s1)C1COc2ccccc2O1 (centres unmarked) [Compound 41] | 7900
28 | O=C(Cc1ccccc1Cl)Nc1nnc(CCSCCc2nnc(NC(=O)Cc3ccccc3Cl)s2)s1 [Compound 255] | 380
29 | O=C(Nc1nnc(CCSCCc2nnc(NC(=O)[C@@H](O)c3ccccc3)s2)s1)[C@@H](O)c1ccccc1 [Compound 93] | 900
30 | CCCC(=O)OCN(C(=O)Cc1ccccc1)c1nnc(CCSCCc2nnc(N(COC(=O)CCC)C(=O)Cc3ccccc3)s2)s1 [Compound 8] | > 50000
31 | CC(C)[C@H](NC(=O)OC(C)(C)C)C(=O)Nc1nnc(CCSCCc2nnc(NC(=O)Cc3ccccc3)s2)s1 [Compound 33] | 13000
32 | COC(C(=O)Nc1nnc(CCSCCc2nnc(NC(=O)C(OC)c3ccccc3)s2)s1)c1ccccc1 (centres unmarked) [Compound 67] | 3000
33 | CC(=O)O[C@H](C(=O)Nc1nnc(CCCCc2nnc(NC(=O)[C@@H](OC(C)=O)c3ccccc3)s2)s1)c1ccccc1 [Compound 66] | 20000
34 | CC(CCc1nnc(NC(=O)Cc2ccccc2)s1)Cc1nnc(NC(=O)Cc2ccccc2)s1 (centres unmarked) [Compound 44] | 4900
35 | O=C(CC1CCCC1)Nc1nnc(CCCCc2nnc(NC(=O)CC3CCCC3)s2)s1 [Compound 61] | > 50000

Other lines, results leading:

Row | IC50 [nM] | SMILES
36 | 320 | COc1ccccc1C(C)C(=O)Nc1nnc(CCSCCc2nnc(NC(=O)C(C)c3ccccc3OC)s2)s1 (centres unmarked) [Compound 263]
37 | 1700 | COCCOC(C(=O)Nc1nnc(CCCCc2nnc(NC(=O)C(OCCOC)c3ccccc3)s2)s1)c1ccccc1 (centres unmarked) [Compound 203]
38 | 250 | O=C(Nc1nnc(CCCCc2nnc(NC(=O)C(CO)c3cccs3)s2)s1)C(CO)c1cccs1 (centres unmarked) [Compound 190]
39 | 600 | O=C(Cc1ccccn1)Nc1nnc(CCSCCc2nnc(NC(=O)Cc3ccccn3)s2)s1 [Compound 308]
40 | 1200 | O=C(Nc1nnc(CCCCc2nnc(NC(=O)C(O)c3cccc(F)c3F)s2)s1)C(O)c1cccc(F)c1F (centres unmarked) [Compound 211]
41 | > 20000 | CC1(C)O[C@H](C(=O)Nc2nnc(CCCCc3nnc(NC(=O)[C@H]4OC(C)(C)O[C@@H]4c4ccccc4)s3)s2)[C@@H](c2ccccc2)O1 [Compound 224]
42 | 2300 | O=C(Nc1nnc(CCCCc2nnc(NC(=O)[C@@H](O)[C@H](O)c3ccccc3)s2)s1)[C@@H](O)[C@H](O)c1ccccc1 [Compound 226]
43 | 300 | Nc1ccc(CC(=O)Nc2nnc(CCSCCc3nnc(NC(=O)Cc4ccc(N)cc4)s3)s2)cc1 [Compound 195]
44 | 640 | O=C(Cc1ccccc1)Nc1ccc(CCCCc2nnc(NC(=O)C(OC(=O)CCN3CCOCC3)c3ccccc3)s2)nn1 (centres unmarked) [Compound 334]
45 | > 20000 | CC(C)(C)c1ccc(CC(=O)Nc2nnc(CCSCCc3nnc(NC(=O)Cc4ccc(C(C)(C)C)cc4)s3)s2)cc1 [Compound 184]
46 | > 20000 | O=C(CC1CCCNC1)Nc1nnc(CCCCc2nnc(NC(=O)CC3CCCNC3)s2)s1 (centres unmarked) [Compound 130]
47 | 620 | CO[C@@H](C(=O)Nc1nnc(CCCCc2nnc(NC(=O)[C@H](OC)c3ccccc3)s2)s1)c1ccccc1 [Compound 147]
48 | 570 | O=C(CCN1CCOCC1)OCC(C(=O)Nc1nnc(CCCCc2nnc(NC(=O)C(CO)c3ccccc3)s2)s1)c1ccccc1 (centres unmarked) [Compound 228, 3-((5-{4-[5-(3-hydroxy-2-phenylpropanamido)-1,3,4-thiadiazol-2-yl]butyl}-1,3,4-thiadiazol-2-yl)amino)-3-oxo-2-phenylpropyl 3-morpholinopropanoate]
49 | > 20000 | O=C(Nc1nnc(CCCCc2nnc(NC(=O)[C@H](O)[C@@H](O)c3ccccc3)s2)s1)[C@H](O)[C@@H](O)c1ccccc1 [Compound 225]
50 | 220 | O=C(Cc1ccccc1)Nc1nnc(CCSCCc2nnc(NC(=O)Cc3cccnc3)s2)s1 [Compound 347]
51 | 380 | O=C(Nc1nnc(CCCCc2nnc(NC(=O)[C@@H](O)c3ccccc3Cl)s2)s1)[C@@H](O)c1ccccc1Cl [Compound 210]

Row | IC50 [nM] | SMILES
52 | 3100 | O=C(CCC(C(=O)O)c1ccccc1)Nc1nnc(CCSCCc2nnc(NC(=O)CCC(C(=O)O)c3ccccc3)s2)s1 (centres unmarked) [Compound 179]
53 | 640 | COc1cc(C(O)C(=O)Nc2nnc(CCCCc3nnc(NC(=O)C(O)c4ccc(O)c(OC)c4)s3)s2)ccc1O (centres unmarked) [Compound 319]
54 | > 20000 | CC(O)(C(=O)Nc1nnc(CCSCCc2nnc(NC(=O)C(C)(O)C(F)(F)F)s2)s1)C(F)(F)F (centres unmarked) [Compound 109]
55 | 200 | O=C(Cc1cccnc1)Nc1nnc(CCCCc2nnc(NC(=O)Cc3cccnc3)s2)s1 [Compound 311]
56 | 150 | COc1ccc(CC(=O)Nc2nnc(CCSCCc3nnc(NC(=O)Cc4ccc(OC)cc4)s3)s2)cc1 [Compound 161]
57 | 8800 | O=C(Nc1nnc(CCSCCc2nnc(NC(=O)c3ccccc3CO)s2)s1)c1ccccc1CO [Compound 180]
58 | 120 | O=C(Cc1ccccc1)Nc1nnc(CCCCc2nnc(NC(=O)Cc3ccc(F)c(O)c3F)s2)s1 [Compound 346]
59 | 7000 | O=C(Nc1nnc(CCCCc2nnc(NC(=O)C3Oc4ccccc4O3)s2)s1)C1Oc2ccccc2O1 [Compound 136]
60 | 210 | CCCCOC(=O)Nc1nnc(CCCCc2nnc(NC(=O)Cc3ccccc3)s2)s1 [Compound 388]
61 | 3400 | O=C(Cc1cc2ccccc2o1)Cc1nnc(CCSCCc2nnc(NC(=O)Cc3cc4ccccc4o3)s2)s1 [Compound 193]
62 | 1500 | CC(C)[C@H](N)C(=O)OCC(C(=O)Nc1nnc(CCCCc2nnc(NC(=O)C(COC(=O)[C@@H](N)C(C)C)c3ccccc3)s2)s1)c1ccccc1 (some centres unmarked) [Compound 291]
63 | 13000 | O=C(Cc1cc2ccccc2s1)Nc1nnc(CCSCCc2nnc(NC(=O)Cc3cc4ccccc4s3)s2)s1 [Compound 207]
64 | 32000 | CC(=O)N[C@@H](C(=O)Nc1nnc(CCSCCc2nnc(NC(=O)[C@H](NC(C)=O)c3ccccc3)s2)s1)c1ccccc1 [Compound 128]
65 | 710 | O=C(Nc1nnc(CCCCc2nnc(NC(=O)[C@H](O)Cc3ccccc3)s2)s1)[C@H](O)Cc1ccccc1 [Compound 169]
66 | 1800 | O=C(Cc1ccncc1)Nc1nnc(CCSCCc2nnc(NC(=O)Cc3ccncc3)s2)s1 [Compound 361]
67 | 200 | O=C(Cc1ccccc1F)Nc1nnc(CCSCCc2nnc(NC(=O)Cc3ccccc3F)s2)s1 [Compound 294]

Same assay, conditions: read-out: GAC Delta N2 IC50 no preinc

Row | SMILES | IC50 [nM]
68 | O=C(Nc1nnc(CCSCCc2nnc(NC(=O)c3ccccc3)s2)s1)c1ccccc1 [Compound 2] | 4100
